From patent US4933348A, “Heterocyclic compounds” (priority 1985, dated 1990)

Tests used:
[1] = system: LTD4-enhanced vascular permeability; assay: Inhibition of LTD4-enhanced vascular permeability in guinea-pig; format: in vivo, guinea-pig (male Hartley); settings: for ED50: Cavia porcellus, po, 30 minutes before LTD4 injection (5 ng intradermal); for anti-leukotriene effect by oral route (in words) / inhibition of LTD4-enhanced vascular permeability (in words): p.o.; for inhibition of LTD4-enhanced vascular permeability (in words): 30 minutes before LTD4 injection
Protocol: (2) Inhibition of LTD4 -enhanced vascular permeability in guinea-pig
Method: Male Hartley quinea-pigs weighing 270 to 305 g, starved for 16 hours, were intradermally injected 5 ng LTD4 in a volume of 0.1 ml into two sites on the shaved back. In addition, 0.1 ml of vehicle was injected intradermally in each animal to see non-specific irritation. One ml of saline containing 1% Evans blue was intravenously injected 2 minutes before LTD4 injection. Animals were sacrificed 30 minutes after LTD4 injection. The leaked dye at the site of LTD4 or vehicle injection was extracted according to the method of Harada et al. (Harada, M. et al., J. Pharm. Pharmacol., 23, 218 (1971)) and measured photometrically at 620 nm. The LTD4 -induced skin reaction was expressed as a difference in the amount of dye between LTD4 and vehicle. Test compounds were orally administered 30 minutes before LTD4 injection.

[2] = system: LTD4-induced contraction of guinea-pig trachea; assay: Inhibition of LTD4-induced contraction of isolated guinea-pig trachea; design: species or system guinea-pig (male Hartley); settings: 10^-8 M LTD4; for inhibition of the contractions induced by LTD4 (in words): isolated guinea pig trachea; for IC50: isolated guinea-pig trachea, incubation 20 minutes, 37° C., read-out: IC 50 (M), Trachea, Anti-LTD4
Protocol: (§1) (1) Inhibition of SRS-A- and LTD4 -induced contraction of guinea-pig ileum and trachea
(§2) Methods: Male Hartley guinea-pigs, weighing 500 to 700 g were sacrificed by a blow on the head The ileum and tracheal strips prepared according to the method of Constantine (Constantine, J. W., J. Pharm Pharmacol., 17, 384 (1965)) were suspended with 1.0 g tension in an organ bath containing 10 ml of Tyrode solution equilibrated with a mixture of 95% O2 and 5% CO2 at 37° C. The tissues were equilibrated for 60 minutes; during this period the Tyrode solution was replaced every 15 minutes and the loading tension was adjusted to 1.0 g. The developed tension of the tissues was measured isometrically with a strain gauge transducer, and recorded on a Recticorder. Both the contractile response of the ileum to submaximal concentration of SRS-A (derived from guinea pig lung) and tracheal response to 10^-8 M LTD4 were recorded in the absence and then in the presence of various concentrations of test compounds. The incubation time of the compounds was 20 minutes.

[3] = system: SRS-A-induced contraction of guinea-pig ileum; assay: Inhibition of SRS-A-induced contraction of isolated guinea-pig ileum; design: species or system guinea-pig (male Hartley); settings: submaximal concentration of SRS-A (derived from guinea pig lung), incubation 20 minutes, 37° C., read-out: IC 50 (M), Ileum, Anti-SRS-A
Protocol: as §1, §2

| IC50 [2] [M] | IC50 [3] [M] | Compound | ED50 [1] [mg/kg] | anti-leukotriene effect by oral route (in words) [1] | inhibition of LTD4-enhanced vascular permeability (in words) [1] | inhibition of the contractions induced by LTD4 (in words) [2] |
| --- | --- | --- | --- | --- | --- | --- |
| 4e-08 | 4.2e-08 | CCCc1c(CSc2nnc(SCC(=O)O)s2)ccc(C(C)=O)c1O [Example 2, [[5-[(4-acetyl-3-hydroxy-2-propylbenzyl)thio]-1,3,4-thiadiazol-2-yl]thio]-acetic acid] | 11.3 | potent anti-leukotriene effect | dose-dependently inhibited | potently inhibited |
|  | 4.1e-09 | CCCc1c(CSc2nnc(SCCCC(=O)O)s2)ccc(C(C)=O)c1O [Example 4, 4-[[5-[(4-acetyl-3-hydroxy-2-propylbenzyl)thio]-1,3,4-thiadiazol-2-yl]thio]butyric acid] |  |  |  |  |
|  | 5.1e-08 | CCCc1c(CSc2nnc(SCCCCCC(=O)OCC)s2)ccc(C(C)=O)c1O [Example 10, ethyl 6-[[5-[(4-acetyl-3-hydroxy-2-propylbenzyl)thio]-1,3,4-thiadiazol-2-yl]thio]hexanate] |  |  |  |  |
|  | 9.1e-09 | CCCc1c(CSc2nnc(SCCCCC(=O)O)s2)ccc(C(C)=O)c1O [Example 11, 5-[[5-[(4-acetyl-3-hydroxy-2-propylbenzyl)thio]-1,3,4-thiadiazol-2-yl]thio]valeric acid] |  |  |  |  |
|  | 4e-09 | CCCc1c(CSc2nnc(SCCCCCC(=O)O)s2)ccc(C(C)=O)c1O [Example 12, 6-[[5-[(4-acetyl-3-hydroxy-2-propylbenzyl)thio]-1,3,4-thiadiazol-2-yl]thio]hexanoic acid] |  |  |  |  |
|  | 2.1e-08 | CCCc1c(CSc2nnc(SCCCCCCC(=O)O)s2)ccc(C(C)=O)c1O [Example 13, 7-[[5-[(4-acetyl-3-hydroxy-2-propylbenzyl)thio]-1,3,4-thiadiazol-2-yl]thio]heptanoic acid] |  |  |  |  |
|  | 5e-08 | CCCc1c(CSc2nccc(O)n2)ccc(C(C)=O)c1O [Example 14, 2-[(4-acetyl-3-hydroxy-2-propylbenzyl)thio]-4-hydroxypyrimidine] |  |  |  |  |
|  | 2.2e-08 | CCCc1c(CSc2nnc(NC(=O)C(=O)O)s2)ccc(C(C)=O)c1O [Example 22, [5-[(4-acetyl-3-hydroxy-2-propylbenzyl)thio]-1,3,4-thiadiazol-2-yl]oxamidic acid] |  |  |  |  |
|  | 3.3e-09 | CCCc1c(CSc2nnc(NC(=O)CCC(=O)O)s2)ccc(C(C)=O)c1O [Example 24, 4-[[5-[(4-acetyl-3-hydroxy-2-propylbenzyl)thio]-1,3,4-thiadiazol-2-yl]amino]-4-oxobutyric acid] |  |  |  |  |
| 3e-09 | 1.5e-10 | CCCc1c(CSc2nnc(SCCCSCC(=O)O)s2)ccc(C(C)=O)c1O [Example 32, [[3-[[5-[(4-acetyl-3-hydroxy-2-propylbenzyl)thio]-1,3,4-thiadiazol-2-yl]thio]propyl]thio]acetic acid] |  |  |  | potently inhibited |
| 5.4e-08 | 2.9e-10 | CCCc1c(CSc2nnc(SCc3ccc(OCC(=O)O)cc3)s2)ccc(C(C)=O)c1O [Example 33, [p-[[[5-[(4-acetyl-3-hydroxy-2-propylbenzyl)thio]-1,3,4-thiadiazol-2-yl]thio]methyl]phenoxy]acetic acid] |  |  |  | potently inhibited |
|  |  | CCCc1c(CSc2nnc(SCc3ccc(OC(C)C(=O)O)cc3)s2)ccc(C(C)=O)c1O (stereo not shown) [Example 34, 2-[p-[[[5-[(4-acetyl-3-hydroxy-2-propylbenzyl)thio]-1,3,4-thiadiazol-2-yl]thio]methyl]phenoxy]propionic acid] | 4.2 |  |  |  |
| 7.8e-09 | 1.1e-08 | CCCc1c(CSc2nnc(SCCC[S+]([O-])CC(=O)O)s2)ccc(C(C)=O)c1O (stereo not shown) [Example 35, [3-[[5-[(4-acetyl-3-hydroxy-2-propylbenzyl)thio]-1,3,4-thiadiazol-2-yl]thio]propylsulfinyl]acetic acid] |  |  |  | potently inhibited |
| 2.9e-09 | 1.1e-09 | CCCc1c(CSc2nnc(SCCCS(=O)(=O)CC(=O)O)s2)ccc(C(C)=O)c1O [Example 36, [3-[[5-[(4-acetyl-3-hydroxy-2-propylbenzyl)thio]-1,3,4-thiadiazol-2-yl]thio]propylsulfonyl]acetic acid] |  |  |  | potently inhibited |
| 1.1e-08 | 3.6e-09 | CCCc1c(CSc2nnc(SCc3ccc(C(=O)O)cc3)s2)ccc(C(C)=O)c1O [Example 37, p-[[5-[(4-acetyl-3-hydroxy-2-propylbenzyl)thio]-1,3,4-thiadiazol-2-yl]thiomethyl]benzoic acid] | 7 | potent anti-leukotriene effect | dose-dependently inhibited | potently inhibited |
| 3.8e-09 | 4.7e-09 | CCCc1c(CSc2nnc(SCc3ccc(CSCC(=O)O)cc3)s2)ccc(C(C)=O)c1O [Example 43, [[p-[[[5-[(4-acetyl-3-hydroxy-2-propylbenzyl)thio]-1,3,4-thiadiazol-2-yl]thio]methyl]benzyl]thio]acetic acid] |  |  |  | potently inhibited |
| 1.9e-07 | 4.5e-08 | CCCc1c(CSc2snc(O)c2C(=O)O)ccc(C(C)=O)c1O [Example 44, 5-[(4-acetyl-3-hydroxy-2-propylbenzyl)thio]-3-hydroxy-4-isothiazolecarboxylic acid] |  |  |  | potently inhibited |
|  | 3.1e-08 | CCCc1c(CSc2nnc(SCc3ccc(CCC(=O)O)cc3)s2)ccc(C(C)=O)c1O [Example 46, 3-[p-[[[5-[(4-acetyl-3-hydroxy-2-propylbenzyl)thio]-1,3,4-thiadiazol-2-yl]thio]methyl]phenyl]propionic acid] |  |  |  |  |
